Consider 3 compounds from patent US20100016232A1, “Treatment Of Inflammatory Diseases With Mammal Beta Defensins” (Novozymes A/S, priority 2008, published 2010).

For assay [1], the system named is IL-1β production from human peripheral blood mononuclear cells (PBMC). Kind of assay: IL-1β production from human PBMC, Cytometric Bead Array. The assay is classed as cell-based. The note with it: concentration of control compound not given, Table 18. The method, then: (§1) Peripheral blood was drawn from healthy volunteers (with approval from the relevant ethical committee in Denmark). Heparinized blood was diluted 1/1 v/v with RPMI and were subjected to Ficoll density centrifugation within 2 h of drawing. Plasma was collected from the top from individual donors and was kept on ice until it was used at 2% in the culture medium (autologous culture medium). Isolated PBMC were resuspended in autologous culture medium and seeded in 96-well culture plates with 255.000 cells per well in a total of 200 μl. […] The concentrations used for stimulation were optimized on 3 different donors in initial experiments, for LPS two different concentrations were used to be sure to be on a cytokine level that is possible to modulate. In some experiments PBMC were treated with Dexamethason and Indomethacin alone and together with LPS or LTA as a control on downregulation of inflammatory cytokines. The supernatants were collected after incubation at 37° C. for 24 hours, and stored at −80° C. until cytokine measurement. Viability was measured by Alamar Blue (Biosource, DALL 1100) in all experiments and in some cases also by MTS (Promega) according to manufacturer's instruction and was in some experiments also judged by counting of the cells by a Nucleocounter.
(§2) Cytokine production in supernatants was measured by flow cytometry with a human inflammation cytometric bead array (CBA) according to manufacturer's instructions (BD) on a FACSarray flow cytometer. The following cytokines were measured: IL-8, IL-1β, IL-10, TNF, IL-12 p70, IL-6. In some experiments, cytokines were measured by ELISA kits from R&D systems (IL-10, TNF-α, IL-1β) according to the manufacturer' instruction.

In assay [2] the test system is IL-10 production from human peripheral blood mononuclear cells (PBMC). The experiment in a line: IL-10 production from human PBMC, Cytometric Bead Array. It is filed as cell-based. The note with it: concentration of control compound not given, Table 17. The method, then:
as §1, §2

Assay [3] relates to IL-23, human CD14+ monocyte-derived dendritic cells. The experiment in a line: IL-23 in supernatants of human CD14+ monocyte-derived dendritic cells, ELISA. It is filed as cell-based. Particulars: Dexamethasone 1 μM. The method, then: The DCs were prepared according to a modified protocol originally described by Romani et al. Briefly, peripheral blood mononuclear cells (PBMCs) were purified from buffy coats of healthy donors by centrifugation over a Ficoll-pague (GE-healthcare) gradient. Monocytes were isolated from PBMC by positive selection of CD14+ cells by magnetic beads (Dynal, Invitrogen) according to the manufacturer's instructions. The CD14+ monocytes were cultured in 6-well plates in RPMI/2% Human AB Serum recombinant human recombinant granulocyte-macrophage colony-stimulating factor (GM-CSF, 20 ng/ml) and IL-4 (20 ng/ml) (PeproTech) for 6 days, replenishing the medium/cytokines after 2 and 5 days.
(§3) Cell culture supernatants were collected and stored at −80° C. Amounts of IL-23 was measured by standard sandwich ELISA using commercially available antibodies and standards according to the manufacturer's protocols (eBioscience).
(In general: An ELISA detects its analyte on a solid surface through an enzyme-linked reagent.)

For assay [4], the system named is collagen-induced arthritis (CIA) in the mouse. Kind of assay: Collagen-induced rheumatoid arthritis model, clinical arthritis score. The assay is classed as in vivo. Set-up: key: each paw scored 0-4 by ascending severity; total summed over paws. The note with it: Group B, 1 mg/kg IP once daily. The method, then:
All animals were subjected on Day 0 of the study (study commencement) to an intradermal injection into the tail of 0.1 ml Type II Collagen/CFA emulsion (200 μg collagen per mouse) under light Isoflurane anesthesia, using a plastic syringe. The location of injection was at an approximate caudal distance of about 1 cm from the base of the tail. A collagen challenge (200 μg/mouse) was presented to the animals by IP injection of collagen and PBS on Day 21.
Treatments were commenced on day 14 of the study and continued once daily throughout. All surviving mice were terminated on study day 42.
Mice were examined for signs of arthritogenic responses in peripheral joints on study day 0, 14, 21 and thereafter five times weekly until termination of the study. Arthritis reactions were reported for each paw according to a 0-4 scale in ascending order of severity as shown below:
In accordance with Home Office regulations mice with a total clinical score of equal to or greater than 12 were culled due to arthritis severity. The clinical score of these mice at termination was carried forward in the analysis for the remainder of the study in order that the data was not artificially skewed by the removal of high scoring mice.

Assay [5] concerns TNF production from mouse peripheral blood mononuclear cells (PBMC). The experiment in a line: TNF production from mouse PBMC, Cytometric Bead Array. The assay is classed as cell-based. The method, then: Mouse peripheral blood mononuclear cells were isolated from blood of ten NMRI mice. In short, heparinized blood was diluted 1/1 v/v with RPMI and subjected to Ficoll density centrifugation within 2 h of drawing. Plasma was collected from the top and discarded. Isolated PBMC were resuspended in culture medium (RPMI 1640 (Gibco, 42401) w/1% penicillin and streptomycin and 1% L-Glutamine) and seeded in 96-well culture plates with 115.500 cells per well in a total of 200 μl. […] The supernatants were collected after incubation at 37° C. for 24 hours, and stored at −80° C. until cytokine measurement.
Cytokine production in supernatants was measured by flow cytometry with a mouse inflammation cytometric bead array (CBA) according to manufacturer's instructions (BD) on a FACSarray flow cytometer.

Assay [6] deals with IL-23, human PBMC. Kind of assay: IL-23 in supernatants of human PBMC, ELISA. The assay is classed as cell-based. The method, then:
as §1, with “Nucleocounter. […]” for “Nucleocounter.”
as §3

Assay [7] has as its system TNF production from human peripheral blood mononuclear cells (PBMC). Kind of assay: TNF production from human PBMC, Cytometric Bead Array. It is filed as cell-based. The method, then:
as §1, §2

The mark [8] stands for this setting: LPS 0.6 ng/ml, concentration of control compound not given, Table 16.
The mark [9] stands for this setting: LPS 20 ng/ml, concentration of control compound not given, Table 16.
[10] abbreviates: LPS 20 ng/ml, treatment 1 μg/ml, Table 21.
[11] abbreviates: Medium, treatment 1 μg/ml, Table 21.
The mark [12] stands for this setting: LPS 20 ng/ml, treatment 1 μg/ml.

Marks after values point to notes of the source that are not given here. Where no end group is shown, it is not given here.

Turning to `C[C@@H]1C[C@H]2[C@@H]3CCC4=CC(=O)C=C[C@]4(C)[C@@]3(F)[C@@H](O)C[C@]2(C)[C@@]1(O)C(=O)CO` [Dexamethasone, reference compound], the “IL-1β % of control” value came to 14% in assay [1] (LPS 0.6 ng/ml) and 44% in assay [1] (LPS 20 ng/ml). Also, the “IL-10 % of control” value in assay [2] (LPS 0.6 ng/ml) is listed as 70%; in assay [2] (LPS 20 ng/ml), 67%. Also, the IL-23 in assay [3] (LPS (100 ng/ml) and IFN-γ (20 ng/ml)) amounted to 1147 pg/mL; in assay [3] (Unstimulated) it was 424 pg/mL; in assay [6] (Control (medium), treatment 3.5 ng/ml), 222 pg/mL; in assay [6] (LTA 5 μg/ml, treatment 3.5 ng/ml), 223 pg/mL. For the same compound, the “Mean Arthritic Score” value in assay [4] (Study Day 0) is 0.0; in assay [4] (Study Day 14), 0.4; in assay [4] (Study Day 21), 0.0; in assay [4] (Study Day 22), 0.0; in assay [4] (Study Day 23), 0.0; in assay [4] (Study Day 26), 0.0*. Further, the “Mean Arthritic Score” value in assay [4] (Study Day 27), in assay [4] (Study Day 28), in assay [4] (Study Day 29), in assay [4] (Study Day 30), in assay [4] (Study Day 33) and in assay [4] (Study Day 34) was 0.0* each time. Further, the “Mean Arthritic Score” value in assay [4] (Study Day 35), in assay [4] (Study Day 36), in assay [4] (Study Day 37), in assay [4] (Study Day 40) and in assay [4] (Study Day 41) was 0.0* throughout. This compound gave a TNF in assay [5] (LPS 20 ng/ml, treatment 3.5 ng/ml) of 328 pg/mL.

For “Infliximab: antibody which binds to TNF-alpha (Remicade), positive control [reference compound]”, the IL-1β came to 636 pg/mL in assay [1] (LPS 0.6 ng/ml), 2704 pg/mL in assay [1] (LPS 20 ng/ml) and 0 pg/mL in assay [1] (Medium). Moreover, the results for the “IL-1β % of control” value in assay [1] (LPS 0.6 ng/ml) and in assay [1] (LPS 20 ng/ml) were 86% and 106%, respectively. The TNF was found to be 0 pg/mL in assay [7] (setting [8]); 0 pg/mL in assay [7] (setting [9]); 1 pg/mL in assay [7] (setting [10]); 0 pg/mL in assay [7] (Medium, concentration of control compound not given, Table 16); 0 pg/mL in assay [7] (setting [11]); 2119 pg/mL in assay [5] (setting [12]). The compound further displayed a TNF in assay [5] (Medium, treatment 1 μg/ml) of 530 pg/mL. The “TNF % of control” value in assay [7] (setting [8]) and in assay [7] (setting [9]) was 0% each time. Further, the IL-10 in assay [2] (LPS 0.6 ng/ml) stood at 46 pg/mL; in assay [2] (LPS 20 ng/ml) it was 63 pg/mL; in assay [2] (Medium), 0 pg/mL. Also, the “IL-10 % of control” value was 69% in assay [2] (LPS 0.6 ng/ml) and 56% in assay [2] (LPS 20 ng/ml). Further, the IL-23 in assay [6] (Control (medium), treatment 1 μg/ml) is 227 pg/mL; in assay [6] (LPS 0.6 ng/ml, treatment 1 μg/ml), 356 pg/mL; in assay [6] (setting [12]), 373 pg/mL; in assay [6] (LTA 5 μg/ml, treatment 1 μg/ml), 349 pg/mL.

In the case of “mBD3: mouse beta defensin 3, SEQ ID NO:6; produced recombinantly by the hBD2 protocol (KINNPVSCLRKGGRCWNRCIGNTRQIGSCGVPFLKCCKRK; ends and bridges not checked; cysteine pairing not given here; listed as Mus musculus)”, the TNF amounted to 384 pg/mL in assay [7] (setting [10]); 51 pg/mL in assay [7] (LPS 20 ng/ml, treatment 10 μg/ml, Table 21); 166 pg/mL in assay [7] (LPS 20 ng/ml, treatment 100 μg/ml, Table 21); 2 pg/mL in assay [7] (setting [11]); 2 pg/mL in assay [7] (Medium, treatment 10 μg/ml, Table 21); 39 pg/mL in assay [7] (Medium, treatment 100 μg/ml, Table 21). Besides, the TNF in assay [5] (setting [12]) worked out at 1600 pg/mL; in assay [5] (LPS 20 ng/ml, treatment 10 μg/ml), 297 pg/mL; in assay [5] (LPS 20 ng/ml, treatment 100 μg/ml) it was 195 pg/mL; in assay [5] (Medium, treatment 1 μg/ml), 347 pg/mL; in assay [5] (Medium, treatment 10 μg/ml), 180 pg/mL; in assay [5] (Medium, treatment 100 μg/ml), 182 pg/mL.
